Data reported in US9062032B2, “Aminoalkyl-substituted N-thienylbenzamide derivative” (ASTELLAS PHARMA INC., priority 2011, dated 2015).
Structures can show the parent of a compound that is named as a salt.

Legend:
[1] = tested on: phosphate absorption from the intestinal tract; assay: Action of inhibiting increase in blood radioactivity in rat orally loaded with 32P phosphate (phosphate absorption inhibitory action); format: in vivo; conditions: male Wistar rats, 3 mg/kg oral, 32P phosphate load 5 min after dosing, serum radioactivity AUC0-30 min
Method: Action of Inhibiting Increase in Blood Radioactivity in Rat Orally Loaded with ^32P Phosphate (Phosphate Absorption Inhibitory Action)
Male Wistar rats (6- to 7-week old) were fasted for 24 hours and then used as experimental animals. The compound was suspended or dissolved with a solvent, and was used at a concentration of 0.6 mg/mL. The compound was forcibly orally administered at a dose of 3 mg/kg to the animals of a compound-administered group. Control-group animals were administered a solvent containing no compound at a dose of 5 mL/kg. After 5 minutes from administration of the compound or the solvent, a ^32P-containing phosphate solution (8.3 mM NaH2PO4) was orally administered thereto at a dose of 7.2 mL/kg. After 15 minutes and 30 minutes, the blood was taken from the orbital venous plexus and the serum was collected. Radioactivity in 0.1 mL of the serum was measured by a liquid scintillation counter. AUC0-30 min in calculated from the measured counts was considered as a phosphate absorption amount. The phosphate absorption inhibitory rate was determined from the AUC0-30 min value according to the following formula. Inhibition rate of phosphate absorption (%)=(1−phosphate absorption count of compound-administered group/phosphate absorption count of standard group)×100
Table 2 illustrates examples of the inhibition rate (Int. 2) of phosphate absorption in regard to some of the compounds of Formula (I).

rat NPT-IIb = target: T1, rat NPT-IIb (Rattus norvegicus, UniProt Q9JJ09); assay: Inhibitory action against 33P-phosphate uptake into rat NPT-IIb expression cell; format: cell-based; conditions: HEK293; compound concentration 1 μM; rat NPT-IIb stable expression 293 cells; read-out: Int. 1 (%): inhibition rate of the 33P-phosphate uptake into the rat NPT-IIb
T1 construct: rat NPT-IIb ORF was cloned into p3×FLAG-CMV-10 by PCR; expressed in transfected cells
T1 sequence (Q9JJ09 1-695): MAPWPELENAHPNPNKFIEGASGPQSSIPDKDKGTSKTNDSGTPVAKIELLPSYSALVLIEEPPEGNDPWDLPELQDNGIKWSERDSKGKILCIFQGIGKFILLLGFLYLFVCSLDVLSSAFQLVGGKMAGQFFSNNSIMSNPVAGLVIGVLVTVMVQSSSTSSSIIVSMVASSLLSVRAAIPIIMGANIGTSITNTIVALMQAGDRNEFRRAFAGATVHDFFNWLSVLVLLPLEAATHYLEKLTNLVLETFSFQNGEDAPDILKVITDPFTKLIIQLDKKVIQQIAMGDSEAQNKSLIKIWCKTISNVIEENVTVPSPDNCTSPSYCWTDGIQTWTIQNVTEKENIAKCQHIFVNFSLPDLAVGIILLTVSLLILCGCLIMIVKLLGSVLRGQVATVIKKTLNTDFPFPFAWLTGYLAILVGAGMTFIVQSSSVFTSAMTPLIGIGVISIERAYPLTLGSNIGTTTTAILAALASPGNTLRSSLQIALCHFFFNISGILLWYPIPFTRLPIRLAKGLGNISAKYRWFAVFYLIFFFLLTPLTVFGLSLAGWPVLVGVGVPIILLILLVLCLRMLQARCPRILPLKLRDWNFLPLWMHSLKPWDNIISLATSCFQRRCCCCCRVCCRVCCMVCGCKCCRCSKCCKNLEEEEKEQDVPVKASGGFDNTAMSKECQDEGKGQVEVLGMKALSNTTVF
Text: Inhibitory Action Against ^33P-Phosphate Uptake into Rat NPT-IIb Expression Cell
(1) Preparation of Rat NPT-IIb Expression Cell
A rat small intestine cDNA library was used as a template, and rat NPT-IIb ORF was cloned into p3×FLAG-CMV-10 by PCR according to the prescribed method. Thereafter, 293 cells were transfected with the cloned rat NPT-IIb expression plasmid, thereby obtaining a rat NPT-IIb stable expression cell line by using G418.
(2) Evaluation System for Inhibition of Phosphate Uptake into Rat NPT-IIb Expression Cell
The rat NPT-IIb expression cells were seeded to a 96-well plate, followed by incubation overnight. Thereafter, the culture medium was removed, the plate was washed with buffer A (137 mM N-methyl-D-glucamine, 5.4 mM KCl, 2.8 mM CaCl2, 1.2 mM MgCl2, and 10 mM HEPES (adjusted to pH 7.4 using HCl)), and then buffer B (137 mM NaCl, 5.4 mM KCl, 2.8 mM CaCl2, 1.2 mM MgCl2, 0.1 mM KH2PO4, and 10 mM HEPES (adjusted to pH 7.4 using KOH)) was added thereto. Subsequently, a compound with a concentration of 10 times the evaluation concentration was prepared by dilution with the buffer B and added thereto. After the resultant was incubated in a CO2 incubator, the buffer B supplemented 50 μCi/mL of ^33P was added thereto, and then the resultant was incubated again in a CO2 incubator. After the reaction, the buffer was removed, the plate was washed with buffer C (137 mM NaCl, 10 mM Tris/HCl, pH 7.2). Thereafter, MicroScint-20 was added thereto, and ^33P uptake was measured using TopCount. An inhibition rate was calculated by the following formula. Inhibition rate (%)=(1−(^33P uptake of well treated with chemical)/(^33P uptake of DMSO-added well))×100
Table 1 illustrates examples of the inhibition rate (Int. 1) of the ^33P-phosphate uptake into the rat NPT-IIb in some of the compounds of the present invention at a concentration of drug efficacy evaluation of 1 μM. Here, Ex represents the number of example compounds described later (the same shall apply hereinafter).

Structure (SMILES)	Int. 2 (%): inhibition rate of phosphate absorption [1] [%]	inhibition at 1 µM (rat NPT-IIb) [%]
CCC(CC)N(CCN(C)C(=O)CCC(=O)O)Cc1cccc(C(=O)Nc2sc3c(c2C(=O)Nc2ccc(CCc4ccc(C(=O)O)cc4)cc2)CCCC3)c1.Cl [Example 2, 4-(2-{4-[({2-[(3-{[{2-[(3-carboxypropanoyl)(methyl)amino]ethyl}(pentan-3-yl)amino]methyl}benzoyl)amino]-4,5,6,7-tetrahydro-1-benzothiophen-3-yl}carbonyl)amino]phenyl}ethyl)benzoic acid hydrochloride]	>60	87
CCC(CC)N(CCN(C)C(=O)OCC(=O)O)Cc1cccc(C(=O)Nc2sc3c(c2C(=O)Nc2ccc(CCc4ccc(C(=O)O)cc4)cc2)CCCC3)c1.Cl [Example 4, 4-(2-{4-[({2-[(3-{[(2-{[(carboxymethoxy)carbonyl](methyl)amino}ethyl)(pentan-3-yl)amino]methyl}benzoyl)amino]-4,5,6,7-tetrahydro-1-benzothiophen-3-yl}carbonyl)amino]phenyl}ethyl)benzoic acid hydrochloride]	53	77
CCN(CCN(Cc1cccc(C(=O)Nc2sc3c(c2C(=O)Nc2ccc(CCc4ccc(C(=O)O)cc4)cc2)CCCC3)c1)C1CC1)C(=O)CCC(=O)O [Example 31]		87
CN(CCN(Cc1cccc(C(=O)Nc2sc3c(c2C(=O)Nc2ccc(CCc4ccc(C(=O)O)cc4)cc2)CCCC3)c1)C1CC1)C(=O)CCC(=O)O [Example 37]		77
CC(C)N(CCN(C)C(=O)CCC(=O)O)Cc1cccc(C(=O)Nc2sc3c(c2C(=O)Nc2ccc(CCc4ccc(C(=O)O)cc4)cc2)CCCC3)c1 [Example 38]		61
CCC(CC)N(CCN(C)C(=O)CCC(=O)O)Cc1cccc(C(=O)Nc2sc(C3CCCCC3)cc2C(=O)Nc2ccc(CCc3ccc(C(=O)O)cc3)cc2)c1 [Example 41]		73
CCC(CC)N(CCN(C)C(=O)CCC(=O)O)Cc1cccc(C(=O)Nc2sc3c(c2C(=O)Nc2ccc(CCc4ccc(C(=O)O)cc4)cc2)CCCCCC3)c1 [Example 43]		65
CCC(CC)N(CCN(C)C(=O)CCC(=O)O)Cc1cccc(C(=O)Nc2sc3c(c2C(=O)Nc2ccc(CCCc4ccc(C(=O)O)cc4)cc2)CCCC3)c1 [Example 53]		85
CCC(CC)N(CCN(CCOC)C(=O)CCC(=O)O)Cc1cccc(C(=O)Nc2sc3c(c2C(=O)Nc2ccc(CCc4ccc(C(=O)O)cc4)cc2)CCCC3)c1.Cl [Example 60]	56	86
CCC(CC)N(CCCN(C)C(=O)CCC(=O)O)Cc1cccc(C(=O)Nc2sc3c(c2C(=O)Nc2ccc(CCc4ccc(C(=O)O)cc4)cc2)CCCC3)c1.Cl [Example 66]	59	76
CCC(CC)N(CCN(C)C(=O)CCC(C)(C)C(=O)O)Cc1cccc(C(=O)Nc2sc3c(c2C(=O)Nc2ccc(CCc4ccc(C(=O)O)cc4)cc2)CCCC3)c1 [Example 67, 4-(2-{4-[({2-[(3-{[{2-[(4-carboxy-4-methylpentanoyl)(methyl)amino]ethyl}(pentan-3-yl)amino]methyl}benzoyl)amino]-4,5,6,7-tetrahydro-1-benzothiophen-3-yl}carbonyl)amino]phenyl}ethyl)benzoic acid hydrochloride]		89
CC(C)[C@@H](C)N(CCN(C)C(=O)CCC(=O)O)Cc1cccc(C(=O)Nc2sc3c(c2C(=O)Nc2ccc(CCc4ccc(C(=O)O)cc4)cc2)CCCC3)c1 [Example 70]		60
CCC(CC)N(CCc1cccc(C(=O)Nc2sc3c(c2C(=O)Nc2ccc(CCc4ccc(C(=O)O)cc4)cc2)CCCC3)c1)CCN(C)C(=O)CCC(=O)O [Example 79]		75
CCC(CC)N(CCN(C)C(=O)CCC(=O)O)Cc1cccc(C(=O)Nc2sc3c(c2C(=O)Nc2ccc(CCc4ccc(C(=O)O)cc4)nc2)CCCC3)c1 [Example 96]		70
CCC(CC)N(CCN(C)C(=O)CCC(=O)O)Cc1cc(C(=O)Nc2sc3c(c2C(=O)Nc2ccc(CCc4ccc(C(=O)O)cc4)cc2)CCCC3)ccn1 [Example 99]		71
CCC(CC)N(Cc1cccc(C(=O)Nc2sc3c(c2C(=O)Nc2ccc(CCc4ccc(C(=O)O)cc4)cc2)CCCC3)c1)C(=O)CCC(C)(C)C(=O)O [Example 109, 4-(2-{4-[({2-[(3-{[(4-carboxy-4-methylpentanoyl)(pentan-3-yl)amino]methyl}benzoyl)amino]-4,5,6,7-tetrahydro-1-benzothiophen-3-yl}carbonyl)amino]phenyl}ethyl)benzoic acid]		86
CCC(CC)N(Cc1cccc(C(=O)Nc2sc3c(c2C(=O)Nc2ccc(CCc4ccc(C(=O)O)cc4)cc2)CCCC3)c1)C(=O)CC(C)(C)CC(=O)O [Example 121, 4-(2-{4-[({2-[(3-{[(4-carboxy-3,3-dimethylbutanoyl)(pentan-3-yl)amino]methyl}benzoyl)amino]-4,5,6,7-tetrahydro-1-benzothiophen-3-yl}carbonyl)amino]phenyl}ethyl)benzoic acid]		79
CC(C)N(Cc1cccc(C(=O)Nc2sc3c(c2C(=O)Nc2ccc(CCc4ccc(C(=O)O)cc4)cc2)CCCC3)c1)[C@H]1CC[C@H](C(=O)O)CC1 [Example 172]		48
